# Source: ChEMBL document CHEMBL1201862, “PubChem BioAssay data set” (2004)
#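 48-hour exposure; five concentrations; linearly interpolated endpoints. GI50 is the concentration that inhibits growth by half.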 Active and inactive are the calls of the source. Rule as the data show it: active = GI50 up to about 1.1 µM and inactive = higher.
# How the values were obtained:
# Test in all cases: growth of human tumour cells (NCI), 48 h
# [1] = tested on: SNB-78
# [2] = tested on: TK-10
# [3] = tested on: SK-MEL-2
# [4] = tested on: SNB-75
# [5] = tested on: LXFL 529
# [6] = tested on: SNB-19
# [7] = tested on: IGROV-1
# [8] = tested on: XF498
# [9] = tested on: SR
# [10] = tested on: UACC-257
# [11] = tested on: A549
# [12] = tested on: UACC-62
# [13] = tested on: LOX IMVI
# [14] = tested on: HCT-116
# [15] = tested on: SF-539
# [16] = tested on: UO-31
# [17] = tested on: RPMI-8226
# [18] = tested on: HCT-15
# [19] = tested on: SK-MEL-28
# [20] = tested on: NCI-H522
# [21] = tested on: OVCAR-8
# [22] = tested on: M19-MEL
# [23] = tested on: ACHN
# [24] = tested on: A498
# [25] = tested on: KM12
# [26] = tested on: MOLT-4
# [27] = tested on: CCRF-CEM
# [28] = tested on: HOP-18
# [29] = tested on: DMS-114
# [30] = tested on: NCI-H23
# [31] = tested on: SW-620
# [32] = tested on: SK-OV-3
# [33] = tested on: SF-268
# [34] = tested on: HOP-62
# [35] = tested on: HL-60
# [36] = tested on: OVCAR-5
# [37] = tested on: DMS-273
# [38] = tested on: OVCAR-4
# [39] = tested on: SF-295
# [40] = tested on: HT-29
# [41] = tested on: HCC 2998
# [42] = tested on: EKVX
# [43] = tested on: U-251
# [44] = tested on: COLO 205
# [45] = tested on: SK-MEL-5
# [46] = tested on: NCI-H460
# [47] = tested on: OVCAR-3
# [48] = tested on: 786-0
# [49] = tested on: DLD-1
# [50] = tested on: HOP-92
# [51] = tested on: NCI-H226
# [52] = tested on: Malme-3M
# [53] = tested on: M14
# [54] = tested on: K562
# [55] = tested on: SN12C
# [56] = tested on: KM-20L2
# [57] = tested on: RXF 393
# [58] = tested on: CAKI-1
structure (smiles),measurement,setting,value
CN1/C(=N\c2ccccc2)S/C1=N/c1ccccc1,GI50,[1],> 100 µM (inactive)
same,GI50,[2],> 100 µM (inactive)
same,GI50,[3],27.2 µM (inactive)
same,GI50,[4],6.62 µM (inactive)
same,GI50,[5],82.2 µM (inactive)
same,GI50,[6],> 100 µM (inactive)
same,GI50,[7],> 100 µM (inactive)
same,GI50,[8],9.57 µM (inactive)
same,GI50,[9],95.7 µM (inactive)
same,GI50,[10],> 100 µM (inactive)
same,GI50,[11],86.1 µM (inactive)
same,GI50,[12],> 100 µM (inactive)
same,GI50,[13],74.6 µM (inactive)
same,GI50,[14],47.6 µM (inactive)
same,GI50,[15],> 100 µM (inactive)
same,GI50,[16],> 100 µM (inactive)
same,GI50,[17],39.5 µM (inactive)
same,GI50,[18],90.8 µM
same,GI50,[19],> 100 µM (inactive)
same,GI50,[20],14.4 µM (inactive)
same,GI50,[21],> 100 µM (inactive)
same,GI50,[22],21.8 µM (inactive)
same,GI50,[23],70.6 µM (inactive)
same,GI50,[24],96.4 µM (inactive)
same,GI50,[25],52.2 µM (inactive)
same,GI50,[26],69.3 µM (inactive)
same,GI50,[27],69.3 µM (inactive)
same,GI50,[28],69 µM (inactive)
same,GI50,[29],23.6 µM (inactive)
same,GI50,[30],40 µM (inactive)
same,GI50,[31],> 100 µM (inactive)
same,GI50,[32],> 100 µM (inactive)
same,GI50,[33],> 100 µM (inactive)
same,GI50,[34],> 100 µM (inactive)
same,GI50,[35],27.2 µM (inactive)
same,GI50,[36],> 100 µM (inactive)
same,GI50,[37],87.3 µM (inactive)
same,GI50,[38],59.7 µM (inactive)
same,GI50,[39],> 100 µM (inactive)
same,GI50,[40],55.5 µM (inactive)
same,GI50,[41],66.8 µM (inactive)
same,GI50,[42],60.1 µM (inactive)
same,GI50,[43],> 100 µM (inactive)
same,GI50,[44],61 µM (inactive)
same,GI50,[45],28.9 µM (inactive)
same,GI50,[46],> 100 µM (inactive)
same,GI50,[47],34.1 µM (inactive)
same,GI50,[48],> 100 µM (inactive)
same,GI50,[49],23.4 µM (inactive)
same,GI50,[50],10.2 µM (inactive)
same,GI50,[51],> 100 µM (inactive)
same,GI50,[52],23.1 µM (inactive)
same,GI50,[53],72.1 µM (inactive)
same,GI50,[54],56.5 µM (inactive)
CCOC(=O)c1nc(-c2ccccc2)oc1OCC,GI50,[1],> 100 µM (inactive)
same,GI50,[2],> 100 µM (inactive)
same,GI50,[4],> 100 µM (inactive)
same,GI50,[5],> 100 µM (inactive)
same,GI50,[6],> 100 µM (inactive)
same,GI50,[7],> 100 µM (inactive)
same,GI50,[8],21.2 µM (inactive)
same,GI50,[11],> 100 µM (inactive)
same,GI50,[12],> 100 µM (inactive)
same,GI50,[13],36.8 µM (inactive)
same,GI50,[14],> 100 µM (inactive)
same,GI50,[15],> 100 µM (inactive)
same,GI50,[17],92.7 µM (inactive)
same,GI50,[19],> 100 µM (inactive)
same,GI50,[20],> 100 µM (inactive)
same,GI50,[21],> 100 µM (inactive)
same,GI50,[22],> 100 µM (inactive)
same,GI50,[55],> 100 µM (inactive)
same,GI50,[25],> 100 µM (inactive)
same,GI50,[26],60.7 µM (inactive)
same,GI50,[27],> 100 µM (inactive)
same,GI50,[28],> 100 µM (inactive)
same,GI50,[29],> 100 µM (inactive)
same,GI50,[30],> 100 µM (inactive)
same,GI50,[31],> 100 µM (inactive)
same,GI50,[32],> 100 µM (inactive)
same,GI50,[33],> 100 µM (inactive)
same,GI50,[34],> 100 µM (inactive)
same,GI50,[35],49.9 µM (inactive)
same,GI50,[37],90.2 µM (inactive)
same,GI50,[38],> 100 µM (inactive)
same,GI50,[39],> 100 µM (inactive)
same,GI50,[40],> 100 µM (inactive)
same,GI50,[41],> 100 µM (inactive)
same,GI50,[42],21 µM (inactive)
same,GI50,[43],> 100 µM (inactive)
same,GI50,[44],> 100 µM (inactive)
same,GI50,[45],> 100 µM (inactive)
same,GI50,[46],> 100 µM (inactive)
same,GI50,[56],> 100 µM (inactive)
same,GI50,[47],> 100 µM (inactive)
same,GI50,[57],> 100 µM (inactive)
same,GI50,[48],> 100 µM (inactive)
same,GI50,[49],> 100 µM (inactive)
same,GI50,[51],> 100 µM (inactive)
same,GI50,[53],> 100 µM (inactive)
same,GI50,[54],74.1 µM (inactive)
O=C(CC1C(=O)c2ccccc2C1=C1C(=O)c2ccccc2C1=O)c1ccccc1 (stereo unspecified),GI50,[1],> 100 µM (inactive)
same,GI50,[2],> 100 µM (inactive)
same,GI50,[3],> 100 µM (inactive)
same,GI50,[4],> 100 µM (inactive)
same,GI50,[5],85.5 µM (inactive)
same,GI50,[6],> 100 µM (inactive)
same,GI50,[7],> 100 µM (inactive)
same,GI50,[8],> 100 µM (inactive)
same,GI50,[10],> 100 µM (inactive)
same,GI50,[11],> 100 µM (inactive)
same,GI50,[12],> 100 µM (inactive)
same,GI50,[13],> 100 µM (inactive)
same,GI50,[15],> 100 µM (inactive)
same,GI50,[16],> 100 µM (inactive)
same,GI50,[17],> 100 µM (inactive)
same,GI50,[18],64.4 µM
same,GI50,[19],> 100 µM (inactive)
same,GI50,[20],19.9 µM (inactive)
same,GI50,[21],> 100 µM (inactive)
same,GI50,[22],78.9 µM (inactive)
same,GI50,[23],80.4 µM (inactive)
same,GI50,[24],> 100 µM (inactive)
same,GI50,[55],> 100 µM (inactive)
same,GI50,[25],> 100 µM (inactive)
same,GI50,[26],77.3 µM (inactive)
same,GI50,[58],> 100 µM (inactive)
same,GI50,[27],32 µM (inactive)
same,GI50,[28],> 100 µM (inactive)
same,GI50,[29],> 100 µM (inactive)
same,GI50,[30],> 100 µM (inactive)
same,GI50,[31],> 100 µM (inactive)
same,GI50,[32],> 100 µM (inactive)
same,GI50,[33],> 100 µM (inactive)
same,GI50,[34],> 100 µM (inactive)
same,GI50,[35],44.6 µM (inactive)
same,GI50,[36],> 100 µM (inactive)
same,GI50,[37],> 100 µM (inactive)
same,GI50,[38],77.6 µM (inactive)
same,GI50,[39],> 100 µM (inactive)
same,GI50,[40],> 100 µM (inactive)
same,GI50,[41],> 100 µM (inactive)
same,GI50,[42],> 100 µM (inactive)
same,GI50,[43],> 100 µM (inactive)
same,GI50,[44],37.2 µM (inactive)
same,GI50,[45],> 100 µM (inactive)
same,GI50,[46],> 100 µM (inactive)
same,GI50,[56],> 100 µM (inactive)
same,GI50,[57],> 100 µM (inactive)
same,GI50,[48],50.6 µM (inactive)
same,GI50,[49],> 100 µM (inactive)
same,GI50,[50],74.3 µM (inactive)
same,GI50,[51],> 100 µM (inactive)
same,GI50,[52],> 100 µM (inactive)
same,GI50,[53],> 100 µM (inactive)
same,GI50,[54],30.3 µM (inactive)
